Consider 2 molecules from patent publication US20210105999A1, “COMPOSITIONS FOR PROLONGING THE SURVIVAL AFTER ORTHOTOPIC AND HETEROTOPIC XENOGENEIC HEART, KIDNEY, LUNG OR LIVER TRANSPLANTATIONS” (priority 2018, published 2021).

Experiment [1] has as its system transplanted GT-KO/hCD46/hTM porcine donor heart. Briefly: Life-supporting orthotopic pig-to-baboon cardiac xenotransplantation. It is filed as in vivo, baboon (Papio Anubis). An excerpt: Seven juvenile pigs of cross-bred genetic backround (German Landrace and Large White, blood group 0) served as donors for heart xenotransplantation. All organs were homozygous for alpha 1,3-galactosyltransferase knockout (GT-KO), and transgeneic for hCD46/thrombomodulin (hTM) (Revivicor, Blacksburg, Va., USA and Institute for Molecular Animal Breeding and Biotechnology, Gene Center, Faculty of Veterinary Medicine, Ludwig-Maximilians-University, Munich, Germany). Localisation and stability of hCD46/hTM expression was verified post-mortem by immunohistochemistry (FIG. 15). Donor heart function and absence of valvular defects were evaluated 7 days prior to transplantation by echocardiographies. Seven male captive-bred baboons (Papio Anubis, blood groups B and AB) were used as recipients.
The recipient's thorax was opened at midline. Unfractionated heparin (500 IU/kg; Heparin-Natrium-25000-ratiopharm, ratiopharm GmbH, Ulm, Germany) was given and the heart-lung machine connected, using both caval veins and the ascending aorta. Cardiopulmonary bypass commenced and the recipient cooled (30° C. in group I, 34° C. in groups II and III). After crossclamping the ascending aorta, the recipient's heart was excised at the atrial levels, both large vessels were cut. The porcine donor heart was transplanted applying Shumway's and Lower's technique (cf. reference 8).
Immunosuppression was based on Mohiuddin's regimen (cf. reference 5; there were changes as indicated in the following), with C1 esterase inhibitor instead of cobra venom factor for complement inhibition. Induction consisted of anti-CD20 antibody (Mabthera; Roche Pharma AG, Grenzach-Wyhlen, Germany), ATG (Thymoglobuline, Sanofi-Aventis Germany GmbH, Frankfurt, Germany), and either anti-CD40 antibody (mouse/rhesus chimeric IgG4 clone 2C10R4, NIH Nonhuman Primate Reagent Resource, Mass Biologicals, Boston, Mass., USA; courtesy of Keith Reimann) or humanised anti-CD40L pasylated Fab (production: Wacker-Chemie, Burghausen, Germany; purification: XL-protein GmbH, Freising, Germany; courtesy of Arne Skerra, cf. reference 9). Maintenance immunosuppression consisted of MMF (CellCept, Roche, Basle, Switzerland; trough level 2-3 μg/ml), either anti-CD40 antibody or anti-CD40L pasylated Fab, methylprednisolone (Urbasone solubile, Sanofi-Aventis Germany GmbH, Frankfurt, Germany). Anti-inflammatory therapy included II-6-receptor antibody (RoActemra, Roche Pharma AG, Grenzach-Wyhlen, Germany), TNFα inhibitor (Enbrel, Pfizer Pharma GmbH, Berlin, Germany) and II-1-receptor antagonist (Kineret, Swedish Orphan Biovitrum GmbH, Martinsried, Germany). Additive therapy: acetylsalicylic acid (Aspirin, Bayer Vital GmbH, Leverkusen, Germany), unfractionated heparin (Heparin-Natrium-25000-ratiopharm, ratiopharm GmbH, Ulm, Germany), C1 esterase inhibitor (Berinert, CSL Behring GmbH, Hattersheim, Germany), ganciclovir (Cymevene, Roche Pharma AG, Grenzach-Wyhlen, Germany), cefuroxime (Cefuroxim Hikma, Hikma Pharma GmbH, Martinsried, Germany) and epoetin beta (NeoRecormon 5000IU, Roche Pharma AG, Grenzach-Wyhlen, Germany).
Starting from 10 mg/kg/d, methylprednisolone was tapered down 1 mg/kg every 10 days in group I and II; in group III, methylprednisolone was tapered down to 0.1 mg/kg within 19 days. […]
Transthoracic echocardiographies were done in analgosedation at regular intervals using an HP Sonos 7500 (HP Inc., Palo Alto, Calif., USA); midpapillary short axis views were recorded. […]

The target of experiment [2] is T1, phosphorylated mTOR (Sus scrofa, UniProt F1RHR8).
T1 construct: heart samples were homogenized in Laemmli-extraction-buffer; from tissue; host or cells: myocardium of GTKO/hCD46/hTM pig donor hearts transplanted orthotopically into baboons (Papio anubis); control: non-transplanted pig heart
Kind of experiment: Western blot analysis of myocardium of transplanted hearts, phosphorylated mTOR. It is filed as in vivo, pig. Particulars: experiment 67 (group III), after treatment with temsirolimus, compared to control (Co). The method, then:
For protein extraction, heart samples were homogenized in Laemmli-extraction-buffer, and the protein content was estimated by the bicinchoninic acid (BCA, Merck, Darmstadt, Germany) protein assay. 20 μg of total protein was separated by 10% SDS-PAGE and transferred to polyvinylidene difluoride (PDVF) membranes (Millipore, Billerica, USA) by electroblotting. Membranes were washed in Tris-buffered saline solution with 0.1% Tween-20 (Merck) (TBS-T) and blocked in 5% w/v fat-free milk powder (Roth, Karlsruhe, Germany) for 1 h at room temperature. Then membranes were washed again in TBS-T and incubated in 5% w/v BSA (Roth) of the appropriate primary antibody overnight at 4° C. […] Bound antibodies were detected using an enhanced chemiluminescence detection reagent (ECL Advance Western Blotting Detection Kit, GE Healthcare, Munich, Germany) and appropriate x-ray films (GE Healthcare). […]
For protein extraction, heart samples were homogenized in Laemmli sample buffer and the protein content was estimated using the bicinchoninic acid (BCA, Merck) protein assay. […] Bound antibodies were detected using an enhanced chemiluminescence detection reagent (ECL Advance Western Blotting Detection Kit, GE Healthcare) and appropriate X-ray films (GE Healthcare). […]
For orientation: A western blot detects proteins with antibodies after separation by electrophoresis.

In experiment [3] the test system is PCNA. Briefly: Western blot analysis of myocardium of transplanted hearts, PCNA. It is filed as in vivo, pig. Particulars: experiment 67 (group III), after treatment with temsirolimus, compared to control (Co). How it is done:
For protein extraction, heart samples were homogenized in Laemmli-extraction-buffer, and the protein content was estimated by the bicinchoninic acid (BCA, Merck, Darmstadt, Germany) protein assay. 20 μg of total protein was separated by 10% SDS-PAGE and transferred to polyvinylidene difluoride (PDVF) membranes (Millipore, Billerica, USA) by electroblotting. Membranes were washed in Tris-buffered saline solution with 0.1% Tween-20 (Merck) (TBS-T) and blocked in 5% w/v fat-free milk powder (Roth, Karlsruhe, Germany) for 1 h at room temperature. Then membranes were washed again in TBS-T and incubated in 5% w/v BSA (Roth) of the appropriate primary antibody overnight at 4° C. The following antibodies were used: rabbit anti-human pmTOR (#5536; Cell Signaling, Frankfurt, Germany) and mouse anti-human PCNA (#2586; Cell Signalling). After washing, membranes were incubated in 5% w/v fat-free milk powder with a horseradish peroxidase labelled secondary antibody for 1 h at room temperature. Bound antibodies were detected using an enhanced chemiluminescence detection reagent (ECL Advance Western Blotting Detection Kit, GE Healthcare, Munich, Germany) and appropriate x-ray films (GE Healthcare). After detection, membranes were stripped (Elution buffer: 2% SDS, 62.5 mM Tris/HCl, pH 6.7 and 100 mM […] for 30 min at 70° C.) and incubated with an appropriate second antibody. […]

The target of experiment [4] is T2, porcine growth hormone receptor (GHR) (pig, UniProt P19756 19-638).
T2 construct: whole, on cells; Endogenous receptor in tissue sections of control pigs; GHR-KO pigs (frameshift in exon 3) lack it; also called porcine GHR
T2 sequence (looked up): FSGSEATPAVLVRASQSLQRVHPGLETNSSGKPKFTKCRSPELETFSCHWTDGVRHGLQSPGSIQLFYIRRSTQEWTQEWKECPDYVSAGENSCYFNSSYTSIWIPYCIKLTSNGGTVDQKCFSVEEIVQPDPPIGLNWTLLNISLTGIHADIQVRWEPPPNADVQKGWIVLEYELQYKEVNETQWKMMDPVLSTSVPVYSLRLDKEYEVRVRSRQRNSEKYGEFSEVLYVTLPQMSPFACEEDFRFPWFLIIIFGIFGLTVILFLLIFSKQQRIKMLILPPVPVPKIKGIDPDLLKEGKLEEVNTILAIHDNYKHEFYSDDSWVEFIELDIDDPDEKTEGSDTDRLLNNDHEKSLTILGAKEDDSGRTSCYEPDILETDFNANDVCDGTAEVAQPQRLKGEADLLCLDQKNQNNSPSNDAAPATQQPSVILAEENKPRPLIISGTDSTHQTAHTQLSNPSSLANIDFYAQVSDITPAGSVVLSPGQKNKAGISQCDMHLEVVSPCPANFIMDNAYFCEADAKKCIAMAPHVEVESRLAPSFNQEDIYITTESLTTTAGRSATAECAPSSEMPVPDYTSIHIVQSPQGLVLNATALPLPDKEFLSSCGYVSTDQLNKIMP
Kind of experiment: ligand immunohistochemistry: rat GH on liver and kidney paraffin sections of control and GHR-KO pigs, detected with anti-rat GH antibody and DAB. The method, then: Liver and kidney tissue of GHR-KO and control pigs was fixed overnight in 4% formaldehyde and routinely embedded in paraffin. Paraffin sections were dewaxed, and endogenous peroxidase and biotin were blocked with 1% H₂O₂ in Tris-buffered saline (TBS) for 15 min and by using the avidin/biotin blocking kit (no. SP-2001; Vector Laboratories), respectively. After blocking with 0.5% fish gelatin for 30 min, the slides were incubated in 0.5 μg/mL recombinant rat GH (no. 16343667, ImmunoTools) in 0.2% fish gelatin solution overnight at 4° C. They were then washed 3 times for 5 min in TBS and incubated in goat anti-rat GH polyclonal antibody solution (dilution 1:2,400, no. AF1566, R&D Systems) for 6 h at room temperature. After 3 washing steps in TBS (10 min each), the slides were incubated in biotinylated rabbit anti-goat IgG solution (dilution 1:100, no. BA-5000, Vector Laboratories) for 1 h at room temperature, washed 3 times for 10 min in TBS, and finally incubated with horseradish peroxidase-labelled avidin biotin complex for 30 min (no. PK-6100, VECTASTAIN Elite ABC-Peroxidase kit, Vector Laboratories). Immunoreactivity was visualized using 3,3′-diaminobenzidine tetrahydrochloride dihydrate (DAB) (brown color). Nuclear counterstaining was performed with Mayer's hemalum (blue color). […]

The mark [5] stands for this setting: group III, with antihypertensive treatment and early glucocorticoid tapering.

T1 sequence (F1RHR8 1-2548): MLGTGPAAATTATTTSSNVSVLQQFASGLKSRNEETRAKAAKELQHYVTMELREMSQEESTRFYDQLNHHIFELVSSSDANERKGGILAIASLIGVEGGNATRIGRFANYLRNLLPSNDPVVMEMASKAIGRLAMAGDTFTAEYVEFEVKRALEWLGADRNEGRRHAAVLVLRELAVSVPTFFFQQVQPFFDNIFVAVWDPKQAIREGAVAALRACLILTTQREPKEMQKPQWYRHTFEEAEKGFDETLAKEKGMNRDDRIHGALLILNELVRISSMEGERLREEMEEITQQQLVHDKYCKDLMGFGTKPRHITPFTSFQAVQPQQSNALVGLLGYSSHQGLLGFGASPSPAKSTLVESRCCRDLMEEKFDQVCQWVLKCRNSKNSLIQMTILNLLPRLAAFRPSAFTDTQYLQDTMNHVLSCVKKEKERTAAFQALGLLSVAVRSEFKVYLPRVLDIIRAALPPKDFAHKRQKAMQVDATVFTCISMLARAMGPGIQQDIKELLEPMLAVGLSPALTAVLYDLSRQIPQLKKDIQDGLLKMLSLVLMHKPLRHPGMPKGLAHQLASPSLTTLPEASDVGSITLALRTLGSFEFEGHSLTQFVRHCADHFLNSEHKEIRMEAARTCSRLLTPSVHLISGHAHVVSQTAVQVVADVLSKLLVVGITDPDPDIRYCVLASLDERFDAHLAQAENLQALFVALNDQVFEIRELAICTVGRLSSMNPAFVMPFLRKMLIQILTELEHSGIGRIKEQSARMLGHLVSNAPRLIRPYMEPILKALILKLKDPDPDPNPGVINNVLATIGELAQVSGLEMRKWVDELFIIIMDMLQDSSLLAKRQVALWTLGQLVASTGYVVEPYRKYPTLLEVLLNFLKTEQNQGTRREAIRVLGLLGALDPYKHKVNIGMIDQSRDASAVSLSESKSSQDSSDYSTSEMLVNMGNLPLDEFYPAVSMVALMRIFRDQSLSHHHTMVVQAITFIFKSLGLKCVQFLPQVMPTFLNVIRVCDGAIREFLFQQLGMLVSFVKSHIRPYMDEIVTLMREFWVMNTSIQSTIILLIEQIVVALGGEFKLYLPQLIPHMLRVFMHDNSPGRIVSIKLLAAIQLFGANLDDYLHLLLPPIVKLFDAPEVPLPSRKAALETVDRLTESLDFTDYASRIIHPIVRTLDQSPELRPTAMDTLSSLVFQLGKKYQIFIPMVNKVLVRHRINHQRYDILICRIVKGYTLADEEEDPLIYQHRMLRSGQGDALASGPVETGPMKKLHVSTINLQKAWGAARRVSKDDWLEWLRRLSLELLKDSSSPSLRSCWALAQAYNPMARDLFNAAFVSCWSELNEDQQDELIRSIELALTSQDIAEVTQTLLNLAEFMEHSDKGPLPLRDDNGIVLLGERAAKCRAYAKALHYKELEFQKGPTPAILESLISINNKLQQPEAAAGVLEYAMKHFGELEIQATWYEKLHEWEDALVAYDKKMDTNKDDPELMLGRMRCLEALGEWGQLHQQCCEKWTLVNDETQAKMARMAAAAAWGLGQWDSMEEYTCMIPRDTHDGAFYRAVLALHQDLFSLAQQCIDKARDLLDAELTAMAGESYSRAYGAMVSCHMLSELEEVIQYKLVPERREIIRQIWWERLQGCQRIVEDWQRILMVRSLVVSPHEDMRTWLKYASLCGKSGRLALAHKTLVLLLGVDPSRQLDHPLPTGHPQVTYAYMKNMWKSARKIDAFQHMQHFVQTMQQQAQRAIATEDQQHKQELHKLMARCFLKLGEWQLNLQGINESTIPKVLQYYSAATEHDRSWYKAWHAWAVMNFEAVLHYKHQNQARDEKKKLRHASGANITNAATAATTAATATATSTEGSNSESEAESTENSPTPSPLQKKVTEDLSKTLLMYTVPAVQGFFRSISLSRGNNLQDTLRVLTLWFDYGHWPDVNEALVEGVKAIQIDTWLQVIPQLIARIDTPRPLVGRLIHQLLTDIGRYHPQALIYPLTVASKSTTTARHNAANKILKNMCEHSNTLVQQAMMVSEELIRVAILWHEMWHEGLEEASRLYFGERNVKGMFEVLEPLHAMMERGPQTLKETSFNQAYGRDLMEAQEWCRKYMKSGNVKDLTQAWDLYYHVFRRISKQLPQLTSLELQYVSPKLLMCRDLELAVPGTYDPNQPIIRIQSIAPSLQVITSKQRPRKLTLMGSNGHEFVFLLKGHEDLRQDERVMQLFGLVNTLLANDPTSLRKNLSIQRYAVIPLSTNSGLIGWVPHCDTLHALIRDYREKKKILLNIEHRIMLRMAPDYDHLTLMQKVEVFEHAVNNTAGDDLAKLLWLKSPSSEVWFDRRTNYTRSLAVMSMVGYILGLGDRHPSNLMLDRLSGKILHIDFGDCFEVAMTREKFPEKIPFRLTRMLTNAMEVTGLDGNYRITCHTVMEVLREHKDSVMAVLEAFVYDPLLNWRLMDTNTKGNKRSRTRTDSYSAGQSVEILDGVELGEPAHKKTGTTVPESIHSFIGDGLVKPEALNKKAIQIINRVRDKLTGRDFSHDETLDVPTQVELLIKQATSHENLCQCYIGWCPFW

Consider `CO[C@H]1C[C@@H]2CC[C@@H](C)[C@@](O)(O2)C(=O)C(=O)N2CCCC[C@H]2C(=O)O[C@H]([C@H](C)C[C@@H]2CC[C@@H](OC(=O)C(C)(CO)CO)[C@H](OC)C2)CC(=O)[C@H](C)/C=C(\C)[C@@H](O)[C@@H](OC)C(=O)[C@H](C)C[C@H](C)/C=C/C=C/C=C/1C` [temsirolimus], for which the “pathologic findings described for groups I and II (heart and liver failure, graft overgrowth, myocardial hypertrophy)” value in experiment [1] (group III recipients: antihypertensive treatment, early glucocorticoid weaning and additional temsirolimus medication) is given as “absent”. In addition, the cardiac overgrowth result in experiment [1] (group III, combination of blood pressure lowering, early cortisone tapering and temsirolimus) is “successfully counteracted”. Moreover, in experiment [1] (setting [5]), the “myocardial hypertrophy of the transplanted heart” value is reported as “mitigated” and the “obliteration of LV cavity” value is on record as “omitted”. The “growth of the cardiac graft (LV mass) after discontinuation of temsirolimus” value in experiment [1] (recipients 13 and 14, i.v. temsirolimus discontinued on day 175 and on day 161) was “increased growth of the cardiac graft”. In addition, the “phosphorylated mTOR in myocardium (Western blot)” value in experiment [2] is given as “downregulated”. Further, in experiment [3], the “PCNA in myocardium (Western blot)” value is listed as “downregulated”.

B1: recombinant rat GH (no. 16343667, ImmunoTools) (ligand, UniProt P01244 27-216, looked up)
chain: FPAMPLSSLFANAVLRAQHLHQLAADTYKEFERAYIPEGQRYSIQNAQAAFCFSETIPAPTGKEEAQQRTDMELLRFSLLLIQSWLGPVQFLSRIFTNSLMFGTSDRVYEKLKDLEEGIQALMQELEDGSPRIGQILKQTYDKFDANMRSDDALLKNYGLLSCFKKDLHKAETYLRVMKCRRFAESSCAF
notes: Used at 0.5 ug/mL as the ligand in ligand immunohistochemistry; Detected with goat anti-rat GH polyclonal antibody; also called growth hormone
B1: the binding result in experiment [4] is “binds”.
